Measurements: US12544370B2, “Methods for cancer therapy” (ASCENTAGE PHARMA (SUZHOU) CO., LTD., priority 2018, dated 2026)

Tests used:
[1] = target: Ba/F3 containing BCR-ABL mutation Y253H/E255V (Homo sapiens, UniProt P00519, Y253H/E255V, cells depend on it); settings: read-out: Antiproliferation Effect (IC50)
From the text: (§1) Ba/F3 cells stably expressing BCR-ABL (F359V, H396R, E255K, Y253H, T315I, F317L) mutations were provided by the Institute of Life and Health, Guangzhou Academy of Sciences.
(§2) 1. The mutated Ba/F3 cell line stably expressing BCR-ABL (E255V, T315M, Y253H/E255V, Y253H/T315I, Y253H/F359V, T315I/F317L, F317L/F359V) mutation was constructed by electro-transformation method, the Ba/F3 cell line stably expressing the BCR-ABL (E255V/T315I, T315I/F359V) mutation was constructed by lentivirus infection method.
(§3) 2. Effect of drugs on the proliferation of BaF3 cells stably transfected with BCR-ABL single mutation or complex mutation by WST assay
(§4) The dilution was used as a cell blank control (excluding the sample to be tested, which was added to the cells). In addition, a negative control (excluding the sample to be tested and cells) was prepared. In addition to the negative control wells, 100 μl of complete medium cell suspension was added to each well. The dilution was added to the negative control wells at 100 μl/well. 3 repeated wells were set in the experiment. […] 20 μl of CCK-8 detection solution (Shanghai Life iLab Biotech Co., LTD, Cat #D3100L4057) was added to each well, incubating at 37° C. for 2 hours in a CO2 incubator. The OD value was measured at A450 nm by a microplate reader.
(§5) The percentage of cell viability was calculated using the following formula: (O.D. test well-O.D. negative control well)/(O.D. cell control well-O.D. negative control well)×100
(§6) The IC50 was calculated using a non-linear regression data analysis method of Graphpad Prism 6.0 software ([…]).

[2] = target: Ba/F3 containing BCR-ABL mutation F317L (Homo sapiens, UniProt P00519, F317L, cells depend on it); settings: read-out: Antiproliferation Effect (IC50)
From the text: as §1, §2, §3, §4, §5, §6

[3] = test system: tyrosine phosphorylation of CRKL in peripheral blood mononuclear cell (PBMCs); test: Phase I study, pharmacodynamics: CRKL phosphorylation in PBMCs (Example 1); assay type: in vivo, human; settings: doses 12 mg-60 mg, schedule and dose-dependent
[4] = test system: Ba/F3 cells having BCR-ABL^T315I
[5] = Phase 1 trial, pharmacokinetics (Example 2); settings: for half-life / Tmax: human, in vivo; for Tmax: median Tmax
From the text: The eligible patients received continuous treatment until disease progression or unacceptable toxicity, consent withdrawal, or death. The primary efficacy endpoints were major cytogenetic response (MCyR) for CP and complete hematological response (CHR) for AP. MCyR includes partial cytogenetic response (PCyR) and complete cytogenetic response (CCyR). Blood samples were collected at various time points on Day 1-2 and Day 27-28 during cycle 1 for PK analyses.

[6] = target: Ba/F3 containing BCR-ABL Wild Type (Homo sapiens, UniProt P00519); settings: read-out: Antiproliferation Effect (IC50)
[7] = test system: TKI-resistant patients with chronic phase (CP) or accelerated phase (AP) CML; test: Phase I study in TKI-resistant CML, efficacy (Example 1); assay type: in vivo, human; settings: for CHR achieved: 2 mg to 60 mg, within 3 cycles; for CCyR achieved / MCyR achieved: evaluable ≥3 cycles; for MCyR achieved: 12 mg to 50 mg
From the text: The eligible patients received treatments until disease progression or intolerable toxicities. The primary efficacy endpoint in the CML AP and CP patients, was complete hematological response (CHR) and major cytogenetic response (MCyR) respectively, MCyR includes partial cytogenetic response (PCyR) and complete cytogenetic response (CCyR). Blood samples were collected at various time points on Day 1-2 and Day 27-28 during cycle 1 for PK analyses.

[8] = Example 1, Table 2, T315I mutation
[9] = Example 1, Table 2, Without T315I mutation
[10] = FIG. 2A, CML-CP, 24 patients T315I−
[11] = FIG. 2A, CML-CP, 42 patients T315I+
[12] = FIG. 2A, CML-CP, total 66 patients
[13] = FIG. 3A, 30 mg, CML-CP, 7 patients T315I+
[14] = FIG. 3A, 30 mg, CML-CP, 7 patients T315I−
[15] = FIG. 3A, 30 mg, CML-CP, total 14 patients
[16] = FIG. 3B, 40 mg, CML-CP, 8 patients T315I−
[17] = FIG. 3B, 40 mg, CML-CP, 10 patients T315I+
[18] = FIG. 3B, 40 mg, CML-CP, total 18 patients
[19] = FIG. 3C, 50 mg, CML-CP, 4 patients T315I−
[20] = FIG. 3C, 50 mg, CML-CP, 8 patients T315I+
[21] = FIG. 3C, 50 mg, CML-CP, total 12 patients

## Cc1ccc(C(=O)Nc2ccc(CN3CCN(C)CC3)c(C(F)(F)F)c2)cc1C#Cc1cnc2[nH]ncc2c1 [compound of formula (I-A), 3-(2-(1H-pyrazolo[3,4-b]pyridin-5-yl)ethynyl)-4-methyl-N-(4-((4-methylpiperazin-1-yl)methyl)-3-(trifluoromethyl)phenyl)-benzamide]
[1]
  GI50: 122 nM
[2]
  GI50: 8 ± 3 nM
[3]
  reduction of CRKL phosphorylation: ≥ 50%
[4]; Ba/F3 BCR-ABL T315I
  survival rate of isogenic leukemia mice: significantly improved the survival rate
[4]; oral q2d or q3d, dose-dependent manner, imatinib qd as control
  survival of tumor bearing mice (FIG. 8): significantly prolonged the survival
[5]; Day 1, single oral administration, 1-60 mg
  time at which peak concentration was reached: 1 to 12 h
[5]; Day 27, QOD
  time at which peak concentration was observed: 1 to 12 h
  Tmax: 4 to 6 h
[5]; mean terminal T1/2, Day 1, 1-60 mg, watching time window 48 hrs
  half-life: 17.5 to 36.5 h
[5]; mean terminal T1/2, Day 27, watching time window 48 hrs
  half-life: 19.8 to 42.5 h
[5]; Day 1, 1-60 mg
  Tmax: 4 to 8 h
[6]
  GI50: 6 ± 3 nM
[7]; Example 1, Table 2
  activity by T315I mutation status at baseline: highly active in patients with or without T315I mutation at baseline
[7]; Example 1, Table 2, All
  Complete cytogenetic response, responders/evaluable: 14/47
  Complete hematological response, responders/evaluable: 65/70
  Major cytogenetic response, responders/evaluable: 24/47
  Major molecular response, percent: (13%)
  Major molecular response, responders/evaluable: 6/48
[7]; [8]
  Complete cytogenetic response, percent: (45%)
  Complete cytogenetic response, responders/evaluable: 13/29
  Complete hematological response, percent: (89%)
  Complete hematological response, responders/evaluable: 40/45
  Major cytogenetic response, percent: (59%)
  Major cytogenetic response, responders/evaluable: 17/29
  Major molecular response, percent: (20%)
  Major molecular response, responders/evaluable: 6/30
[7]; [9]
  Complete cytogenetic response, percent: (6%)
  Complete cytogenetic response, responders/evaluable: 1/18
  Complete hematological response, percent: (100%)
  Complete hematological response, responders/evaluable: 25/25
  Major cytogenetic response, percent: (39%)
  Major cytogenetic response, responders/evaluable: 7/18
  Major molecular response, responders/evaluable: 0/18
[7]; Example 1, AP patients
  CHR achieved: 7 (58%) n (%)
  CCyR achieved: 2 (25%) n (%)
  MCyR achieved: 3 (38%) n (%)
[7]; Example 1, CP patients
  MMR achieved: 6 (15%) n (%)
  CHR achieved: 58 (100%) n (%)
  CCyR achieved: 12 (31%) n (%)
  MCyR achieved: 21 (54%) n (%)
[7]; Example 1, cycle number not given
  patients who achieved MCyR or MMR at the end of cycle: More than 65%
[7]; FIG. 1A, CML-CP, 32 patients T315I−
  CHR: 100%
[7]; FIG. 1A, CML-CP, 50 patients T315I+
  CHR: 96%
[7]; FIG. 1A, CML-CP, total 82 patients
  CHR: 98%
[7]; FIG. 1B, CML-AP, 3 patients T315I−
  CHR: 100%
[7]; FIG. 1B, CML-AP, 11 patients T315I+
  CHR: 82%
[7]; FIG. 1B, CML-AP, total 14 patients
  CHR: 86%
[7]; [10]
  CCyR: 17%
  MCyR: 46%
  PCyR: 29%
[7]; [11]
  CCyR: 74%
  MCyR: 78%
  PCyR: 4%
[7]; [12]
  CCyR: 53%
  MCyR: 67%
  PCyR: 14%
[7]; FIG. 2B, CML-AP, 3 patients T315I−
  response rate (cytogenetic): 0
[7]; FIG. 2B, CML-AP, 9 patients T315I+
  CCyR: 33%
[7]; FIG. 2B, CML-AP, total 12 patients
  MCyR: 25%
[7]; [13]
  CCyR: 57%
  MCyR: 71%
  PCyR: 14%
[7]; [14]
  CCyR: 14%
  MCyR: 28%
  PCyR: 14%
[7]; [15]
  CCyR: 36%
  MCyR: 50%
  PCyR: 14%
[7]; [16]
  CCyR: 13%
  MCyR: 50%
  PCyR: 38%
[7]; [17]
  CCyR: 60%
  MCyR: 60%
[7]; [18]
  CCyR: 38%
  MCyR: 54%
  PCyR: 16%
[7]; [19]
  CCyR: 25%
  MCyR: 50%
  PCyR: 25%
[7]; [20]
  CCyR: 75%
  MCyR: 100%
  PCyR: 25%
[7]; [21]
  CCyR: 58%
  MCyR: 83%
  PCyR: 25%
[7]; FIG. 4A, CML-CP, 24 patients T315I−
  MMR: 4%
[7]; FIG. 4A, CML-CP, 43 patients T315I+
  MMR: 47%
[7]; FIG. 4A, CML-CP, total 67 patients
  MMR: 31%
[7]; FIG. 4B, CML-AP, 3 patients T315I−
  MMR: 0%
[7]; FIG. 4B, CML-AP, 9 patients T315I+
  MMR: 11%
[7]; FIG. 4B, CML-AP, total 12 patients
  MMR: 8%
